The text below walks through data of patent US20150050734A1, “Carbon Nanotubes And Methods Of Use” (DUKE UNIVERSITY, priority 2012, published 2015).

Entries after “also recorded” stand apart in the source; their conditions may differ.

One assay deals with primary cortical neurons. As to the kind of experiment: Clomeleon-based ratiometric chloride imaging. It is filed as cell-based, rat. To be noted: for effect on neuronal [Cl−]i: KN93 1 μM. The procedure: The preparation of primary cortical neurons was adapted from a previous protocol. […] Briefly, cortices were microdissected from embryonic rats (E18) or mice (E16.5).
The tissue was dissociated using papain, followed by mechanical dissociation. Cytosine arabinoside (2.5 μM) was added to cultures to inhibit the proliferation of non-neuronal cells. Cell suspension was plated at a density of 10^6 cells mL^−1 onto tissue-culture dishes. 12 mm-diameter matrix-covered glass coverslips were contained in tissue culture dishes, typically n=3.

Another assay deals with KCC2. Nature of the assay: KCC2 immunocytochemistry / densitometry in cultured neurons. The conditions noted are these: KN93 1 μM. It is filed as cell-based, rat. How it is done:
Confocal fluorescence imaging was conducted after immunolabeling for β3-tubulin (mouse monoclonal antibody; 1:200, Iowa hybridoma bank, Iowa City, United States), and KCC2 (rabbit polyclonal antibody; Abcam; 1:200). Id.. Fluorescently labeled sections were visualized in a Zeiss LSM710 (Carl Zeiss AG, Oberkochen, Germany) confocal imaging suite with lasers tuned to the […] spectra of the secondary fluorescent antibodies (coupled to Alexa-488 and Alexa-595 dyes), as described previously. Li, J. et al. (2011) Environ Health Perspect 119:784-793.
Morphometry for confocal and light-microscopy acquired images was conducted as previously described. Yeo, M. et al. (2009) J. Neurosci 29:14652-14662.

On to `CN([C@@H](Cc1ccc(OS(=O)(=O)c2cccc3cnccc23)cc1)C(=O)N1CCN(c2ccccc2)CC1)S(=O)(=O)c1cccc2cnccc12` [KN62], for which the “effect on acceleration of the chloride shift and upregulation of KCC2” value with primary cortical neurons (KN62 1 μM, fwCNT-cultured primary neurons) is “Dependence of acceleration of the chloride shift and upregulation of KCC2”.
As for `COc1ccc(S(=O)(=O)N(CCO)c2ccccc2CN(C)C/C=C/c2ccc(Cl)cc2)cc1` [KN93], the “effect on neuronal [Cl−]i” value was “also not on Au-cultured neurons” in the assay with primary cortical neurons (Au-cultured neurons); “specific and powerful effect” with primary cortical neurons (fwCNT-cultured neurons). Besides, the “effect on KCC2 expression” value in the assay with KCC2 (Au-cultured neurons) is “modest reduction; also recorded: relative lack effect”. For the same molecule, the “effect on KCC2 upregulation” value in the assay on KCC2 (fwCNT-cultured neurons) is “strict dependence”.
